Measurements reported in ChEMBL document CHEMBL5728913, “Indoleamine 2,3-dioxygenase inhibitor, method for preparation and use thereof” (2022).
“And” between values parts separate entries of the source, which are not always exact repeats. Equal values may be shown once.

Biological target: Indoleamine 2,3-dioxygenase 1 (Homo sapiens, UniProt P14902)
Experiment: Inhibitory Activity Assay: 1. […] Reagent Preparation100 mM PBS:100 mM disodium hydrogen phosphate and 100 mM potassium dihydrogen phosphate mixed in a ratio of 3:5, pH 6.5IDO1 assay buffer:100 mM PBS containing 400 μM L-tryptophan, 20 mM ascorbate, 20 μM methylene blue and 1000 U/ml catalase, pH 6.530% trichloroacetic acidddH2 O solution of 30% trichloroacetic acidEhrlich reagent1% (w/v) diluted solution of 4-(dimethylamino) benzaldehyde compoundAll compounds were dissolved with DMSO. During the assay, each compound was diluted to a concentration as needed. The compound of each concentration was added to multi-wells, and the final concentration of DMSO was controlled at 1%.3. Test Methoda.) the reaction mixture was prepared by adding 50 nM IDO1 and the desired concentration of the test compound to 100 μL of IDO1 assay buffer. IDO1 and assay buffer need to be preheated to 37° C.b.) The mixture was reacted in a constant temperature water tank at 37° C. for 30 minutes.c.) 50 μL of 30% trichloroacetic acid was added.d.) The above mixture was reacted in a constant temperature water tank at 52° C. for 30 minutes.e.) The reaction mixture was centrifuged at 12000 g for 10 minutes at room temperature.f.) 100 μL of the obtained supernatant and 100 μL of Ehrlich reagent were mixed.g.) the absorbance at 480 nm was measured using an M5 microplate reader.4. Data AnalysisInhibition rate=(ODpostive−ODsample)/(ODpositive−ODnegative)*100%5. Results and Discussion

Indoleamine 2,3-dioxygenase 1, sequence (P14902 whole entry): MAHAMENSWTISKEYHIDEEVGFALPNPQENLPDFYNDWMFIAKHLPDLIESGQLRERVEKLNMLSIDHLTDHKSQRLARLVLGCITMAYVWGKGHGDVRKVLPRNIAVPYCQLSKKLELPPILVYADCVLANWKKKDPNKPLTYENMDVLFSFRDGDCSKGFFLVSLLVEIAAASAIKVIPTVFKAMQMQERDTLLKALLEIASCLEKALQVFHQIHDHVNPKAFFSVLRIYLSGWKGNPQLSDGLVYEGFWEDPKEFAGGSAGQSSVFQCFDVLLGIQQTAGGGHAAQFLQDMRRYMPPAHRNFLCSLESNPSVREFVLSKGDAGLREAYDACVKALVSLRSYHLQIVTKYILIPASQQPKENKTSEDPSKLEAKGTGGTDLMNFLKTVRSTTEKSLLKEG

SMILES	IC50
O=C(Nc1ccccc1)ONc1nonc1/C(=N/O)Nc1ccc(F)c(Br)c1	48 nM
NS(=O)(=O)NCC1(CONc2nonc2/C(=N/O)Nc2ccc(F)c(Br)c2)CC1	82 nM
NC(=O)C(N)CCONc1nonc1/C(=N/O)Nc1ccc(F)c(Br)c1 (stereo not drawn)	85 nM
O=C(NCCONc1nonc1/C(=N/O)Nc1ccc(F)c(Br)c1)NC1CCCC1	69 nM
CCCCONc1nonc1/C(=N/O)Nc1ccc(F)c(Br)c1	80 nM
O/N=C(\Nc1ccc(F)c(Br)c1)c1nonc1NOC1CCCNC1 (stereo not drawn)	80 nM
CC(=O)ONc1nonc1/C(=N/O)Nc1ccc(F)c(Br)c1	92 nM
CSNc1nonc1/C(=N/O)Nc1ccc(F)c(Cl)c1	53 nM
O=C(NCCONc1nonc1/C(=N/O)Nc1ccc(F)c(Br)c1)Nc1cc(F)cc(F)c1	12 nM
O=C(NCCOCCONc1nonc1/C(=N/O)Nc1ccc(F)c(Br)c1)Nc1cc(F)cc(F)c1	72 nM
O=C1C=CC(=O)N1CCONc1nonc1/C(=N/O)Nc1ccc(F)c(Cl)c1	32 nM and 58 nM
O/N=C(\Nc1ccc(F)c(Br)c1)c1nonc1NO	125 nM
CC(C)OC(=O)NCCONc1nonc1/C(=N/O)Nc1ccc(F)c(Br)c1	36 nM and 28 nM
O/N=C(\Nc1ccc(F)c(Br)c1)c1nonc1NOCCN1CCCC1	108 nM
O=C(ONc1nonc1/C(=N/O)Nc1ccc(F)c(Br)c1)c1ccccc1	65 nM
NS(=O)(=O)N1CCC(ONc2nonc2/C(=N/O)Nc2ccc(F)c(Br)c2)CC1	65 nM
CC(=O)NCCONc1nonc1/C(=N/O)Nc1ccc(F)c(Br)c1	162 nM
O/N=C(\Nc1ccc(F)c(Br)c1)c1nonc1NOCCN1CCOCC1	43 nM and 38 nM
NC1CCC(ONc2nonc2/C(=N/O)Nc2ccc(F)c(Br)c2)CC1 (stereo not drawn)	184 nM
NCCONc1nonc1/C(=N/O)Nc1ccc(F)c(Br)c1	35 nM and 43 nM
O=C1CCC(=O)N1CCONc1nonc1/C(=N/O)Nc1ccc(F)c(Br)c1	96 nM
O/N=C(\Nc1ccc(F)c(Br)c1)c1nonc1NOCCOc1ccccc1	120 nM
O/N=C(\Nc1ccc(F)c(Cl)c1)c1nonc1NS	104 nM
